“Also recorded” adds a separate entry of the source.
Columns and labels:
Mef2c-het mice [1] = assay: Three-chamber social interaction test; format: in vivo, mouse
Description: (§1) Mef2c heterozygous knockout (Mef2c-het) mice were created by crossing mice carrying the conventional exon 2-deleted allele of Mef2c (Mef2c^Δ2) with their WT littermates. All procedures for maintaining and using these mice were approved by the Institutional Animal Care and Use Committee (IACUC) at the Sanford Burnham Prebys Medical Discovery Institute. In this study, only male mice were used for the behavioral assays to insure uniformity (either with or without drug treatment). Chronic treatment with memantine, NitroSynapsin (both at 4.6 μmol/kg body weight) or vehicle (PBS) was administered via i.p. injection, twice a day for at least 3 months, starting at ˜2.5 weeks of age. This age was chosen because mice are still juveniles and thus treatment could begin in human at an equivalent stage.
This test was originally developed by the Crawley group for an animal model of autism. Autistic individuals show aberrant reciprocal social interaction, including low levels of social approach and unusual modes of interaction. A social interaction apparatus consisting of a rectangular, three chambered Plexiglas box, with each chamber measuring 20 cm (length)×40.5 cm (width)×22 cm (height) was used. Walls dividing the chamber were clear with small semicircular openings (3.5 cm radius), allowing access into each chamber. The middle chamber was empty and the two outer chambers contained small, round wire cages (Galaxy Cup, Spectrum Diversified Designs, Inc., Streetsboro, Ohio). The mice were habituated to the entire apparatus for 5 min. To assess social interaction, mice were returned to the middle chamber, this time with a stranger mouse (C57BL/6J of the same sex tethered to the wire cage). Time spent in the chamber with the stranger mouse and time spent in the empty wire cage-containing chamber were each recorded for 5 min, as was the number of entries into each chamber. Experimental mice were tested once, and the stranger C57BL/6J mice were used for up to 6 tests.

Mef2c-het mice [2] = assay: Motor behavioral tests and paw clasping; format: in vivo, mouse; settings: 3-month treatment
Description: as §1, with “This age was chosen because mice are still juveniles and thus treatment could begin in human at an equivalent stage.” left out
Balance was measured by the latency to fall off the elevated (40 cm) horizontal rod (50 cm long) in four 20 sec trials. […] Traction capacity was measured over three 5 s trials as the ability of the animal to raise the hind limbs while remaining suspended by the forepaws grasped around an elevated horizontal bar (2 mm diameter). […] Muscle Strength was determined by one trial of 60 s in which the mice were placed in the middle of the horizontal bar in an upside-down position and the latency until falling down was measured. […] The latency to turn downward and the total time to descend to the floor over 3 trials was recorded.

Mef2c-het mice [3] = settings: mouse, in vivo
Description: as §1, with “stage. […]” for “stage.”
For extracellular field recordings, concentric, bipolar tungsten electrodes were used to activate Schaffer collateral/commissural (SC) fibers in the hippocampal CA1 region. […] For baseline recordings, slices were stimulated at 0.033 Hz for 20 min at stimulation intensities of 30-40% of those used to elicit the largest measured fEPSP amplitude. […] Data were sampled at 5 kHz and analyzed using the Clampfit 10 program (Molecular Devices).
Synaptic activity was recorded from dentate gyrus (DG) granule neurons using the whole-cell voltage-clamp technique. […]

[4] = tested on: MeCP2 knockout (KO) mouse model of Rett syndrome; assay: Rotarod test; format: in vivo; settings: MeCP2 KO mice
Description: Mice were placed on the stationary cylinder and the cylinder then slowly accelerated to 10 revolutions/min. The total time at 10 rpm before a fall from the cylinder was recorded.

## CCC12CC3(N)CC(CC)(C1)CC(O[N+](=O)[O-])(C3)C2 [NitroSynapsin]
Mef2c-het mice [1]; Mef2c-het mice, chronic treatment
  social ability: time in chambers, number and duration of visits: improved this abnormal social behavior; also recorded: rescued aberrant social ability
Mef2c-het mice [1]; Mef2c-het mice, head-to-head comparison
  number of social visits (S1 minus E), NitroSynapsin vs equimolar memantine: demonstrated the superiority of NitroSynapsin; also recorded: significantly greater than that of memantine (M)-treated mice
Mef2c-het mice [1]; WT mice, 3-month treatment
  social behavior of WT mice: did not significantly alter the social behavior of WT mice
Mef2c-het mice [2]
  paw clasping: did not improve the paw clasping phenotype; also recorded: not rescued
Mef2c-het mice [3]
  effect on EPSCs in WT mice: no effects
  effect on LTP in WT mice: no effects
[4]
  rotarod performance (time at 10 rpm before a fall): improved motor behavior; also recorded: significantly improved motor performance
